ChEMBL document CHEMBL3991601, “The target landscape of clinical kinase drugs” (Science, 2017)
Active and inactive are the calls of the source. Cut-off read from the data, not from the text of the source, for most assays here: actives have a measured Kd and inactives only a lower limit.

Assays:
[1] = target: T1, ATP-dependent 6-phosphofructokinase, platelet type (Homo sapiens, UniProt Q01813)
T1 sequence (Q01813 whole entry): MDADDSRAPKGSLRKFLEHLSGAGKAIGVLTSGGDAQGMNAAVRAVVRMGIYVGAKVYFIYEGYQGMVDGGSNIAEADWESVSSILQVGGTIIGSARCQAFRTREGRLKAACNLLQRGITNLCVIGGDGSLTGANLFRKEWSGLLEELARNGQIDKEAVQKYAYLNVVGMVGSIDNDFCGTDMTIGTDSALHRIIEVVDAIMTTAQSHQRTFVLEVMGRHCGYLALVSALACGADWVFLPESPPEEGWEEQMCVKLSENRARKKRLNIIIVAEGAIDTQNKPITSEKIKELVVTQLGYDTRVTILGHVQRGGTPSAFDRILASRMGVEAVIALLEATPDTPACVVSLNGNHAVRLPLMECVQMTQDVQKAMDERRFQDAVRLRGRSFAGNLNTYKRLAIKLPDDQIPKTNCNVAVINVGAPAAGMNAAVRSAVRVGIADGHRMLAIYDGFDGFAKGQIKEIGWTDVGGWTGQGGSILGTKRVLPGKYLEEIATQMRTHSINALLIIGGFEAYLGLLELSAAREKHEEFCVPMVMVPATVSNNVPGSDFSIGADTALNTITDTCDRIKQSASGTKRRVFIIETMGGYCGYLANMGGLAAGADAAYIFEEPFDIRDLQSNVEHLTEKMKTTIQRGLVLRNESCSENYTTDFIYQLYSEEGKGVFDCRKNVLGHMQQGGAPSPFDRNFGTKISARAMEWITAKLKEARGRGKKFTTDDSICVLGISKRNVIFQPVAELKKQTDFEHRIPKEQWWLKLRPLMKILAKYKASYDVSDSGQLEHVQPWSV

[2] = target: T2, Activin receptor type-1B (Homo sapiens, UniProt P36896)
T2 sequence (P36896 whole entry): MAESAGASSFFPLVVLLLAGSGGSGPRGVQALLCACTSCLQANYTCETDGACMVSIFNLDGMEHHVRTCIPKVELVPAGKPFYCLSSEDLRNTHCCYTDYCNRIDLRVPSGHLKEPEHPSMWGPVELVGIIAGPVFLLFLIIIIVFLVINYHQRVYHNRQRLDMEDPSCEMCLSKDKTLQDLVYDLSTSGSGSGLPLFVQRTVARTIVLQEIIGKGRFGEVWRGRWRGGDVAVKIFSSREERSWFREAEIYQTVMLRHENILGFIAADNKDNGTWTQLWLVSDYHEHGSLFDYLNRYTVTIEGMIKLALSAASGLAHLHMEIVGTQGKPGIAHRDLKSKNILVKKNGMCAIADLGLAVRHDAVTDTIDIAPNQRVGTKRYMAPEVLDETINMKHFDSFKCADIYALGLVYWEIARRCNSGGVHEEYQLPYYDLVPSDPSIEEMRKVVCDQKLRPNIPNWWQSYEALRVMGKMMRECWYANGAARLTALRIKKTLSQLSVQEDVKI

[3] = target: T3, Tyrosine-protein kinase Tec (Homo sapiens, UniProt P42680)
T3 sequence (P42680 whole entry): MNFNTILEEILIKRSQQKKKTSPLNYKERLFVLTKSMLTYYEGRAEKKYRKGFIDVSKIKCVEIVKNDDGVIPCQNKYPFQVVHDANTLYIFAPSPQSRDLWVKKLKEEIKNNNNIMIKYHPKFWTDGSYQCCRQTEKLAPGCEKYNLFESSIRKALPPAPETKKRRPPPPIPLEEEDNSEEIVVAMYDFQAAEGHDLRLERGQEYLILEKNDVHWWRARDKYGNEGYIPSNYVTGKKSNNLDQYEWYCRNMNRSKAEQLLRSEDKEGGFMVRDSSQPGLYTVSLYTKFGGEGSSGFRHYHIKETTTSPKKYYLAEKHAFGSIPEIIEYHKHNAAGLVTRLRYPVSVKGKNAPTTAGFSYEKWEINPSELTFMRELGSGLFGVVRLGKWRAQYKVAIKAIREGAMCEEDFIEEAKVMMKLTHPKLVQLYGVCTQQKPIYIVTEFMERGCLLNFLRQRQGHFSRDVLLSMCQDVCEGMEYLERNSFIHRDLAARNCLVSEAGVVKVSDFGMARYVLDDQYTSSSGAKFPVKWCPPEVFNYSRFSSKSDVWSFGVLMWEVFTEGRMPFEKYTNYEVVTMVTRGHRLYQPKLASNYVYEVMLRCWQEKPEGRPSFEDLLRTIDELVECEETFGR

[4] = target: T4, Septin-9 (Homo sapiens, UniProt Q9UHD8)
T4 sequence (Q9UHD8 whole entry): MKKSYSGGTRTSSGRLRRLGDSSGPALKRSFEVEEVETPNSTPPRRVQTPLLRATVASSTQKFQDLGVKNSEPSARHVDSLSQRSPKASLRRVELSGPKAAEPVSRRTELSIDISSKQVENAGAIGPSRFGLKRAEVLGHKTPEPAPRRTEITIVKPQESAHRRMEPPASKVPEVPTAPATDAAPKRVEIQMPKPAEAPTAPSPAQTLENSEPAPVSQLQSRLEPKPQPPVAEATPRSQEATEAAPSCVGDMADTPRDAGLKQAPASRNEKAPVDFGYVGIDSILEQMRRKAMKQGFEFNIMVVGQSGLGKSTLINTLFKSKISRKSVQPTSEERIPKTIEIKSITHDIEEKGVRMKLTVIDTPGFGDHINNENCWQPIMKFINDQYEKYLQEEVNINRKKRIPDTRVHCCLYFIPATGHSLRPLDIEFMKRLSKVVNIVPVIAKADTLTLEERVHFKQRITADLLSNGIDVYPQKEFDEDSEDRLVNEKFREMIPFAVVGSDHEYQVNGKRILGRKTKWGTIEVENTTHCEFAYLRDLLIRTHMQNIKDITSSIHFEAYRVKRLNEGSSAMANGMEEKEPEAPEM

[5] = target: Ephrin type-A receptor 4 (Homo sapiens, UniProt P54764)
Sequence of Ephrin type-A receptor 4 (P54764 whole entry): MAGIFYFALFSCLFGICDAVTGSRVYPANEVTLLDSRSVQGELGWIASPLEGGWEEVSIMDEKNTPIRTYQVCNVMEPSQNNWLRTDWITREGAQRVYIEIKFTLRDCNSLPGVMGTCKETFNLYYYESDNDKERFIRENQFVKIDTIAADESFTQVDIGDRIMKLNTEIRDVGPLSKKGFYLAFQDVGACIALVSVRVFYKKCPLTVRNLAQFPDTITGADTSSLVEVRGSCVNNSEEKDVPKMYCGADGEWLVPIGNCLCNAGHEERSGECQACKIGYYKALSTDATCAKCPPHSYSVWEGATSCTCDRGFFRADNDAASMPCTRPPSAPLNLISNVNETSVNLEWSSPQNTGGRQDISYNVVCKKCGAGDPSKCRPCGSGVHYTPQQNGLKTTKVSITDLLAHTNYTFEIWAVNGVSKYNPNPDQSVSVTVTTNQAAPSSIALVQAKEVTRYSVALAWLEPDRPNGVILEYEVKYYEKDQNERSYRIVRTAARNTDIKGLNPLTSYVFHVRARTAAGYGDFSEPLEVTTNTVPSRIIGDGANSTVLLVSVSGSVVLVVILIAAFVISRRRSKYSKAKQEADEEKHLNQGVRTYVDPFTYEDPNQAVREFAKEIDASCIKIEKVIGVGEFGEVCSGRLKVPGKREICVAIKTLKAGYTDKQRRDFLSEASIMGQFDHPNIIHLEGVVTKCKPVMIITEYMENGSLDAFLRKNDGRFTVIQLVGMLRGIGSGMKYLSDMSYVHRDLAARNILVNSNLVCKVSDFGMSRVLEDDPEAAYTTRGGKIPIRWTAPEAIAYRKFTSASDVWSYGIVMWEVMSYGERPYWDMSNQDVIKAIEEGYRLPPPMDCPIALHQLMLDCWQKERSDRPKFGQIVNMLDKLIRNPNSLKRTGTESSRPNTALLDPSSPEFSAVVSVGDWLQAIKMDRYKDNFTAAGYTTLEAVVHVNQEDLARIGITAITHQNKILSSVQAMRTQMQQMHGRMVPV

[6] = target: Serine/threonine-protein kinase PAK 2 (Homo sapiens, UniProt Q13177)
Sequence of Serine/threonine-protein kinase PAK 2 (Q13177 whole entry): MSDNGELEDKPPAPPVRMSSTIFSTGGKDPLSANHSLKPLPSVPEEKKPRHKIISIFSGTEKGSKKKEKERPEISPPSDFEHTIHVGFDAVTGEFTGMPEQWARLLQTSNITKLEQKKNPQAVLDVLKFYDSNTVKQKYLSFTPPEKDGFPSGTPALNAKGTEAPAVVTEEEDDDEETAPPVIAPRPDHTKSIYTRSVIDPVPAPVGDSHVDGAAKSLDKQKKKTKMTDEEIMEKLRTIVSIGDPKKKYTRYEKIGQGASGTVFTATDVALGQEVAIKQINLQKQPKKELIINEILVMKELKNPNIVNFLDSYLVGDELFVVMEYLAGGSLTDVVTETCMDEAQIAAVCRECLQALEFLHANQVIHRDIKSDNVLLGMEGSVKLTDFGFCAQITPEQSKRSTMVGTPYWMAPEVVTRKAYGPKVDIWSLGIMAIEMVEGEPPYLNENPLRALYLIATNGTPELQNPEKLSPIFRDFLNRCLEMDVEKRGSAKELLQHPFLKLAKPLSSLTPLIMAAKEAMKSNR

[7] = target: Serine/threonine-protein kinase 26 (Homo sapiens, UniProt Q9P289)
Sequence of Serine/threonine-protein kinase 26 (Q9P289 whole entry): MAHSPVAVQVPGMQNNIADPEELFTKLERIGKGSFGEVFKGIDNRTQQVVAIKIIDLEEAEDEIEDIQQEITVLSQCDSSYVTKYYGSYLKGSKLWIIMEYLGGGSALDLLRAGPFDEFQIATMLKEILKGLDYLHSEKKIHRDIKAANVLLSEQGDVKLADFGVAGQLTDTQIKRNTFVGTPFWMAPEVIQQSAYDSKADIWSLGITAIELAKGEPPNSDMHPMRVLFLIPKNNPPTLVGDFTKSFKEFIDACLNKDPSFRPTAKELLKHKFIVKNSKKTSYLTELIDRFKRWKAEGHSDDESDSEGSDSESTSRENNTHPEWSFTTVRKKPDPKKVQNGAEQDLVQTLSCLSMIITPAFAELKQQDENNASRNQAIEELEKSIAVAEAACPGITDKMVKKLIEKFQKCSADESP

[8] = target: Serine/threonine-protein kinase N1 (Homo sapiens, UniProt Q16512)
Sequence of Serine/threonine-protein kinase N1 (Q16512 whole entry): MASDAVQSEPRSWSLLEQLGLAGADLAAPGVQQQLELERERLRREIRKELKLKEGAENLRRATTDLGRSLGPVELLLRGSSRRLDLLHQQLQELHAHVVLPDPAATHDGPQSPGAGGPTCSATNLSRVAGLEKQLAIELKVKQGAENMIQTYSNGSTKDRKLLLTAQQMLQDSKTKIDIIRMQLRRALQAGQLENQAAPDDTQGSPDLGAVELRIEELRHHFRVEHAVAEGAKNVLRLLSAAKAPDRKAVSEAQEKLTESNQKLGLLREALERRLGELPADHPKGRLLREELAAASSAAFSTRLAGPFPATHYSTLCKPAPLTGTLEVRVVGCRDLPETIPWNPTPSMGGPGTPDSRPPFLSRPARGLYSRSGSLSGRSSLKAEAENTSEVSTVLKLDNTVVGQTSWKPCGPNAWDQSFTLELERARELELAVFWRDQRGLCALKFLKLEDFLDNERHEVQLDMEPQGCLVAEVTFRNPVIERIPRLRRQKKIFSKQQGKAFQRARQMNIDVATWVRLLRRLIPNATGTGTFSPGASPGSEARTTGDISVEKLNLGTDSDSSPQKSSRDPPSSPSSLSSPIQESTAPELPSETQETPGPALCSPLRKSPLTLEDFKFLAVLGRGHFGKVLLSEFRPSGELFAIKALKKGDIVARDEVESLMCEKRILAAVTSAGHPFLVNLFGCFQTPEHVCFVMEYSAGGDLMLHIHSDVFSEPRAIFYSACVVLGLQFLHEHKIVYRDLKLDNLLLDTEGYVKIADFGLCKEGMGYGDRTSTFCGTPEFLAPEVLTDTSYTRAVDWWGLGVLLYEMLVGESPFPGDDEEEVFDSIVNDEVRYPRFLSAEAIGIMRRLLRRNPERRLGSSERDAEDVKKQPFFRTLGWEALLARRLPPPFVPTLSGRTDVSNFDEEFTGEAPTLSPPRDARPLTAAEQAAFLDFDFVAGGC

[9] = target: Mitogen-activated protein kinase 1 (Homo sapiens, UniProt P28482)
Sequence of Mitogen-activated protein kinase 1 (P28482 whole entry): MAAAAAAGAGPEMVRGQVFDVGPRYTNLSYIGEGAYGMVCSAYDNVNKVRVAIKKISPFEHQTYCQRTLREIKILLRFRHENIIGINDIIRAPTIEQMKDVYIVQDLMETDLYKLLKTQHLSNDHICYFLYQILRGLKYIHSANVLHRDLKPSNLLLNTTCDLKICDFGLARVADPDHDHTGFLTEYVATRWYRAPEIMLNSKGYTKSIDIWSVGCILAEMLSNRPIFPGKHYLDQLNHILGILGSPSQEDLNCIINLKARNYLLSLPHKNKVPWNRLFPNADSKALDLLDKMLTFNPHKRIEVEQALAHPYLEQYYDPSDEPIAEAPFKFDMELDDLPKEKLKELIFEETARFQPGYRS

[10] = target: cAMP-dependent protein kinase catalytic subunit alpha (Homo sapiens, UniProt P17612)
Note: in the data inactive means no Kd found up to 30 µM.

Row | Structure (SMILES) | Kd [1] | Kd [2] | Kd [3] | Kd [4] | Kd [5] | Kd [6] | Kd [7] | Kd [8] | Kd [9] | Kd [10]
1 | NC1(c2ccc(-c3nc4ccn5c(=O)[nH]nc5c4cc3-c3ccccc3)cc2)CCC1 [MK-2206] | > 30 µM (inactive) | > 30 µM (inactive) | > 30 µM (inactive) | > 30 µM (inactive) | > 30 µM (inactive) | > 30 µM (inactive) | > 30 µM (inactive) | > 30 µM (inactive) | > 30 µM (inactive) | > 30 µM (inactive)
2 | CN(C[C@@H]1COCCO1)S(=O)(=O)Nc1ccc2ccc3ncc(-c4cnn(C)c4)cc3c(=O)c2c1 [MK-2461] | > 30 µM (inactive) | > 30 µM (inactive) | > 30 µM (inactive) | > 30 µM (inactive) | > 30 µM (inactive) | > 30 µM (inactive) | > 30 µM (inactive) | > 30 µM (inactive) | > 30 µM (inactive) | > 30 µM (inactive)
3 | FC(F)(F)c1ccc(/C=C/c2nc(COc3ccc(CCCCn4ccnn4)cc3)co2)cc1 [MUBRITINIB] | > 30 µM (inactive) | > 30 µM (inactive) | > 30 µM (inactive) | > 30 µM (inactive) | > 30 µM (inactive) | > 30 µM (inactive) | > 30 µM (inactive) | > 30 µM (inactive) | > 30 µM (inactive) | > 30 µM (inactive)
4 | COc1ncc(-c2ccc3nccc(-c4ccnnc4)c3c2)cc1NS(=O)(=O)c1ccc(F)cc1F [OMIPALISIB] | > 30 µM (inactive) | > 30 µM (inactive) | > 30 µM (inactive) | > 30 µM (inactive) | > 30 µM (inactive) | > 30 µM (inactive) | > 30 µM (inactive) | > 30 µM (inactive) | > 30 µM (inactive) | > 30 µM (inactive)
5 | CCOc1cc2ncc(C#N)c(Nc3ccc(F)c(Cl)c3)c2cc1NC(=O)/C=C/CN(C)C [PELITINIB] | > 30 µM (inactive) | > 30 µM (inactive) | > 30 µM (inactive) | > 30 µM (inactive) | > 30 µM (inactive) | > 30 µM (inactive) | > 30 µM (inactive) | > 30 µM (inactive) | > 30 µM (inactive) | > 30 µM (inactive)
6 | CCCCCCCCCCCCCCCCCCOP(=O)([O-])OC1CC[N+](C)(C)CC1 [PERIFOSINE] | > 30 µM (inactive) | > 30 µM (inactive) | > 30 µM (inactive) | > 30 µM (inactive) | > 30 µM (inactive) | > 30 µM (inactive) | > 30 µM (inactive) | > 30 µM (inactive) | > 30 µM (inactive) | > 30 µM (inactive)
7 | CNC(=O)c1cc(Oc2ccc(NC(=O)Nc3cc(C(C)(C)C)nn3-c3ccc4ncccc4c3)c(F)c2)ccn1 [REBASTINIB] | > 30 µM (inactive) | > 30 µM (inactive) | > 30 µM (inactive) | > 30 µM (inactive) | > 30 µM (inactive) | > 30 µM (inactive) | > 30 µM (inactive) | > 30 µM (inactive) | > 30 µM (inactive) | > 30 µM (inactive)

Results, then the compound that gave them:

Row | Kd [1] | Kd [2] | Kd [3] | Kd [4] | Kd [5] | Kd [6] | Kd [7] | Kd [8] | Kd [9] | Kd [10] | Structure (SMILES)
8 | > 30 µM (inactive) | > 30 µM (inactive) | > 30 µM (inactive) | > 30 µM (inactive) | > 30 µM (inactive) | > 30 µM (inactive) | > 30 µM (inactive) | > 30 µM (inactive) | > 30 µM (inactive) | > 30 µM (inactive) | Cc1cnc(NC(=O)Nc2cc(Br)c(C)cc2OC[C@@H]2CNCCO2)cn1 [RABUSERTIB]
9 | > 30 µM (inactive) | > 30 µM (inactive) | > 30 µM (inactive) | > 30 µM (inactive) | > 30 µM (inactive) | > 30 µM (inactive) | > 30 µM (inactive) | > 30 µM (inactive) | > 30 µM (inactive) | > 30 µM (inactive) | N#CC1(c2ccc(NC(=O)c3cccnc3NCc3ccncc3)cc2)CCCC1 [RIVOCERANIB]
10 | > 30 µM (inactive) | > 30 µM (inactive) | > 30 µM (inactive) | > 30 µM (inactive) | > 30 µM (inactive) | > 30 µM (inactive) | > 30 µM (inactive) | 0.019 µM (active) | > 30 µM (inactive) | 0.013 µM | O=c1[nH]ccc2cc(OC3CCNCC3)ccc12 [SAR-407899 FREE BASE]
